Assay results: patent US10005818B2, “Derivative peptide compounds and methods of use” (REALTA HOLDINGS, LLC, priority 2010, dated 2018)
Like-named read-outs stand apart in the source and are kept apart here. Square brackets hold non-standard residues; d marks the D form. Ends that are not written are not given here. Peptide text beside a SMILES is read from it. Sar = CNCC(=O)O

Legend:
CV-1 cells = assay: Toxicity in CV-1 cells
HSV-1 = assay: HSV-1-GFP infection of CV-1 cells, flow cytometry; type: cell-based, Herpes Simplex Virus Type 1; settings: added to CV-1 cells before infection; 16 hours
Description: CV-1 cells were infected with HSV-1-GFP for 16 hours. Post-infection, CV-1 cells were detected by flow cytometry (FIG. 33). […] Acyclovir (the standard of care for severe HSV-1 infections) was also added as a control at the same molar ratio.

Solubility in water = type: physicochemical
[1] = for ALT / AST / AlkPhos / BUN / Bilirubin / CPK / Creatinine / GGT / Lipase / Platelets / RBC / WBC: rats
Description: Toxicity studies were later performed with larger numbers of animals (n=18 in the treatment group) using a high-dose at the upper end of the therapeutic range (PA-PEG24 (SEQ ID NO: 21) at 40 mg [160 mg/kg] i.v.). Eight animals were sacrificed at day 3, and ten were sacrificed at day 14.

[2] = 60 mg [240 mg/kg] i.v.; for ALT / AST / AlkPhos / BUN / Bilirubin / CPK / Creatinine / GGT / Lipase / Platelets / RBC / WBC: rats, n = 6
[3] = test system: complement activation in factor B-depleted human sera; type: biochemical; settings: for inhibition of complement activity in hemolytic assay: factor B depleted serum
Procedure, shortened: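 Peptides at 0.77 mM final in factor B-depleted human serum, or serially diluted in it, incubated 1 h at 37 °C. Then diluted into GVBS++ with sensitized sheep RBCs for 1 h at 37 °C, with hemolysis read at 412 nm. Percent lysis relative to serum-only control, soluble peptides normalized to water and insoluble ones to DMSO, triplicate means.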

acute kidney injury = assay: Acute kidney injury after xenotransfusion in AIHTR rat model (IVIG vs PIC1); type: in vivo; settings: prophylaxis 40 mg/animal
Description: For both experiments, animals allotted to the saline control group received NS prior to huRBC transfusion whereas the CVF group received 130 μg CVF (Complement Technologies, Inc.) intra-peritoneum (I.P.) 24 hours prior to the huRBC transfusion.
Using weight-based doses of ketamine and acepromazine, animals were sedated throughout the course of the experiment with periodic monitoring of vital signs. Blood samples were collected into EDTA microtainer tubes (BD) from the animals prior to the huRBC transfusion and then at 30 seconds, 5 minutes, 20 minutes, 60 minutes and 120 minutes after the huRBC transfusion. […] These samples were kept shaking at room temperature prior to processing and centrifuged at 2655×g for five minutes to separate out the plasma and sediment the RBCs. Plasma was aliquoted and the RBC pellet was processed separately as described below. Upon completion of the final (120 minutes or 360 minutes) blood draw, the animal was euthanized using Fatal Plus (Vortech). A necropsy was completed to collect organs (liver, spleen and bilateral kidney) for histopathology. […] Hematoxylin and eosin (H&E) stained sections were reviewed by a blinded pathologist.
To ascertain if the intravascular toxic free Hb would cause acute kidney injury, the animals were monitored for 6 hours post-transfusion.

[4] = test system: hypoxic ischemic brain injury; type: in vivo, Wistar rat
[5] = test system: complement-mediated hemolysis of transfused huRBCs; assay: AIHTR Wistar rat model, 15% xenotransfusion of human RBCs; type: in vivo; settings: CVF 130 μg I.P. 24 hours prior to transfusion
Description: This process generates 1 ml huRBCs at 80% hematocrit, which was given as a 15% transfusion to the rats.
Plasma generated from the above experiments was analyzed for the free hemoglobin using spectrophotometry, as described previously (Shah et al. “Clinical hypothermia temperatures increase complement activation and cell destruction via the classical pathway.” J Transl Med 2014; 12:181.).

[6] = Table 7, PEGylated and sarcosine/alanine substitution peptides
[7] = 40 mg [160 mg/kg] i.v., 48 Hr, n = 8
[8] = 40 mg [160 mg/kg] i.v., Day14, n = 10

Compound: Nc1nc2c(ncn2COCCO)c(=O)[nH]1 [Acyclovir, reference compound]
- toxicity in CV-1 cells (CV-1 cells): minimal toxicity
- inhibition of HSV-1 infection / replication (HSV-1): never able to completely inhibit replication

Compound: CC[C@H](C)[C@H](N)C(=O)N[C@@H](C)C(=O)N[C@@H](CC(C)C)C(=O)N[C@H](C(=O)N[C@@H](CC(C)C)C(=O)N[C@@H](CCC(=O)O)C(=O)N1CCC[C@H]1C(=O)N[C@H](C(=O)N[C@@H](CS)C(=O)N[C@@H](CS)C(=O)N[C@@H](CCC(N)=O)C(=O)N[C@@H](CCC(=O)O)C(=O)N[C@@H](CCCNC(=N)N)C(=O)N[C@@H](C)C(=O)N[C@@H](C)C(=O)NCCOCCOCCOCCOCCOCCOCCOCCOCCOCCOCCOCCOCCOCCOCCOCCOCCOCCOCCOCCOCCOCCOCCOCCOCCC(=O)O)[C@@H](C)CC)[C@@H](C)CC [PA-dPEG24]
- toxicity in CV-1 cells (CV-1 cells): minimal toxicity
- solubility in water / aqueous solutions (Solubility in water): soluble in water
- Solubility in water (Solubility in water; Table 6, PEGylated PA peptides): Yes
- Solubility in water (Solubility in water; [6]): Yes
- blood chemistry assay results (CBC, superchem, coagulation) ([1]; 40 mg [160 mg/kg] i.v.): no differences between pretreatment, day 3 or day 14 values
- organ histology ([1]; 40 mg [160 mg/kg] i.v., day 3 and day 14): no histological evidence for toxicity in any organ
- single-dose toxicological evaluation ([1]; rat, in vivo): no safety concerns
- ALT [1, 7]: 62.8 (±4.0) U/L
- AST [1, 7]: 108 (±26) U/L
- AlkPhos [1, 7]: 104 (±19) U/L
- BUN [1, 7]: 17.8 (±3.2) mg/dL
- Bilirubin [1, 7]: 0.1 (±0) mg/dL
- CPK [1, 7]: 538 (±128) U/L
- Creatinine [1, 7]: 0.3 (±0) mg/dL
- GGT [1, 7]: 1.0 (±0) U/L
- Lipase [1, 7]: 11.8 (±1.5) U/L
- Platelets [1, 7]: 987 (±93) 10^3/μL
- RBC [1, 7]: 5.8 (±0.5) 10^6/μL
- WBC [1, 7]: 6.0 (±3.0) 10^3/mL
- ALT [1, 8]: 77.4 (±13.9) U/L
- AST [1, 8]: 111 (±14) U/L
- AlkPhos [1, 8]: 115 (±56) U/L
- BUN [1, 8]: 13.2 (±1.9) mg/dL
- Bilirubin [1, 8]: 0.1 (±0) mg/dL
- CPK [1, 8]: 592 (±163) U/L
- Creatinine [1, 8]: 0.3 (±0) mg/dL
- GGT [1, 8]: 1.1 (±0.4) U/L
- Lipase [1, 8]: 6.4 (±1.3) U/L
- Platelets [1, 8]: 825 (±229) 10^3/μL
- RBC [1, 8]: 6.6 (±0.4) 10^6/μL
- WBC [1, 8]: 7.3 (±2.5) 10^3/mL
- organ histology ([2]; brain, heart, lungs, liver, spleen, kidneys, pancreas): Normal histology
- blood work (CBC and complete blood chemistry) ([2]; first 24 hours, 48 hours, day 7 or day 14): No toxicities
- ALT ([2]; 48 Hr): 44.0 (±10.4) U/L
- AST ([2]; 48 Hr): 69.0 (±8.7) U/L
- AlkPhos ([2]; 48 Hr): 194 (±29) U/L
- BUN ([2]; 48 Hr): 15.8 (±2.1) mg/dL
- Bilirubin ([2]; 48 Hr): 0.1 (±0) mg/dL
- CPK ([2]; 48 Hr): 142 (±47) U/L
- Creatinine ([2]; 48 Hr): 0.3 (±0) mg/dL
- GGT ([2]; 48 Hr): 1 (±0) U/L
- Lipase ([2]; 48 Hr): 10.3 (±1.5) U/L
- Platelets ([2]; 48 Hr): 1045 (±156) 10^3/μL
- RBC ([2]; 48 Hr): 5.3 (±0.3) 10^6/μL
- WBC ([2]; 48 Hr): 10.5 (±2.9) 10^3/mL
- ALT ([2]; Day7): 76.3 (±10.9) U/L
- AST ([2]; Day7): 84.3 (±6.74) U/L
- AlkPhos ([2]; Day7): 147 (±34) U/L
- BUN ([2]; Day7): 13.5 (±1.64) mg/dL
- Bilirubin ([2]; Day7): 0.1 (±0) mg/dL
- CPK ([2]; Day7): 316 (±90) U/L
- Creatinine ([2]; Day7): 0.4 (±0.1) mg/dL
- GGT ([2]; Day7): 1 (±0) U/L
- Lipase ([2]; Day7): 8.5 (±1.05) U/L
- Platelets ([2]; Day7): 623 (±417) 10^3/μL
- RBC ([2]; Day7): 5.8 (±0.5) 10^6/μL
- WBC ([2]; Day7): 5.4 (±1.12) 10^3/mL
- ALT ([2]; Day14): 55.8 (±5.6) U/L
- AST ([2]; Day14): 104 (±15) U/L
- AlkPhos ([2]; Day14): 154 (±42) U/L
- BUN ([2]; Day14): 14.7 (±1.0) mg/dL
- Bilirubin ([2]; Day14): 0.1 (±0) mg/dL
- CPK ([2]; Day14): 580 (±172) U/L
- Creatinine ([2]; Day14): 0.4 (±0.1) mg/dL
- GGT ([2]; Day14): 1 (±0) U/L
- Lipase ([2]; Day14): 9.7 (±2.0) U/L

Compound: CC[C@H](C)[C@H](N)C(=O)N[C@@H](C)C(=O)N[C@@H](CC(C)C)C(=O)N[C@H](C(=O)N[C@@H](CC(C)C)C(=O)N[C@@H](CCC(=O)O)C(=O)N(C)CC(=O)N[C@H](C(=O)N[C@@H](CS)C(=O)N[C@@H](CS)C(=O)N[C@@H](CCC(N)=O)C(=O)N[C@@H](CCC(=O)O)C(=O)N(C)CC(=O)N[C@@H](C)C(=O)N[C@@H](C)C(=O)O)[C@@H](C)CC)[C@@H](C)CC [Peptide R13SarP7Sar, IALILE(Sar)ICCQE(Sar)AA] (H-IALILE[Sar]ICCQE[Sar]AA-OH)
- Hemolysis (%) [3]: 26.35%
- Solubility in water (Solubility in water; [6]): No

Compound: ALILEPICC[Sar]ERAA (cysteine pairing not given here) [PA-Q11Sar]
- Hemolysis (%) [3]: 3.02%
- Solubility in water (Solubility in water; Table 5, sarcosine substitution peptides): No

Compound: Immune globulin intravenous [IVIG]
- gross appearance of kidneys at necropsy (acute kidney injury): looked darker and enlarged
- kidney weight (acute kidney injury): significant increase in weight compared to animals receiving PIC1
- gross hematuria / urine appearance (acute kidney injury; 6 hours post-transfusion): two of the three animals
- kidney histopathology (acute kidney injury; H&E): early acute tubular necrosis

Compound: cobra venom factor [CVF]
- brain injury ([4]; CVF injection before ligation/hypoxia): almost completely attenuated brain injury
- systemic complement activity ([4]; CVF injection, for 72 hours after injection): almost completely eliminated
- free hemoglobin in rat plasma [5]: low levels of free hemoglobin

Compound: dPEG24-IALILEPICCQERAA (cysteine pairing not given here) [dPEG24-PA]
- inhibition of complement activity in hemolytic assay [3]: varying degrees of complement inhibition
- solubility in water / aqueous solutions (Solubility in water): soluble in water

Compound: dPEG24-IALILEPICCQERAA-dPEG24 (cysteine pairing not given here) [dPEG24-PA-dPEG24]
- inhibition of complement activity in hemolytic assay [3]: varying degrees of complement inhibition
- solubility in water / aqueous solutions (Solubility in water): soluble in water
